In ChEMBL document CHEMBL1201862, “PubChem BioAssay data set” (2004):
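Each compound was tested at five concentrations against cells in 96-well plates for 48 hours. GI50: concentration for 50% inhibition of growth.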 Activity calls are given as the source filed them. No stated cut-off is given here; in the data, active = GI50 up to about 1.1 µM and inactive = higher.

Legend:
Test in all cases: NCI tumour cell line growth inhibition, 48 h
UACC-62 = tested on: UACC-62
M14 = tested on: M14
OVCAR-8 = tested on: OVCAR-8
SN12C = tested on: SN12C
DU-145 = tested on: DU-145
MDA-N = tested on: MDA-N
UO-31 = tested on: UO-31
MDA-MB-231 = tested on: MDA-MB-231
U-251 = tested on: U-251
SK-MEL-2 = tested on: SK-MEL-2
RPMI-8226 = tested on: RPMI-8226
HT-29 = tested on: HT-29
LOX IMVI = tested on: LOX IMVI
SNB-75 = tested on: SNB-75
MCF7 = tested on: MCF7
BT-549 = tested on: BT-549
EKVX = tested on: EKVX
CCRF-CEM = tested on: CCRF-CEM
MOLT-4 = tested on: MOLT-4
NCI/ADR-RES = tested on: NCI/ADR-RES
A549 = tested on: A549
CAKI-1 = tested on: CAKI-1
HOP-92 = tested on: HOP-92
PC-3 = tested on: PC-3
MDA-MB-435 = tested on: MDA-MB-435
SNB-19 = tested on: SNB-19
NCI-H460 = tested on: NCI-H460
UACC-257 = tested on: UACC-257
OVCAR-4 = tested on: OVCAR-4
SK-MEL-28 = tested on: SK-MEL-28
T47D = tested on: T47D
ACHN = tested on: ACHN
SK-MEL-5 = tested on: SK-MEL-5
SF-295 = tested on: SF-295
SF-268 = tested on: SF-268
TK-10 = tested on: TK-10
A498 = tested on: A498
OVCAR-3 = tested on: OVCAR-3
RXF 393 = tested on: RXF 393
NCI-H226 = tested on: NCI-H226
HCC 2998 = tested on: HCC 2998
COLO 205 = tested on: COLO 205
NCI-H23 = tested on: NCI-H23
786-0 = tested on: 786-0
NCI-H522 = tested on: NCI-H522
KM12 = tested on: KM12
SW-620 = tested on: SW-620
HL-60 = tested on: HL-60
IGROV-1 = tested on: IGROV-1
SK-OV-3 = tested on: SK-OV-3
HCT-15 = tested on: HCT-15
HCT-116 = tested on: HCT-116
K562 = tested on: K562
Malme-3M = tested on: Malme-3M
Hs-578T = tested on: Hs-578T
OVCAR-5 = tested on: OVCAR-5
SF-539 = tested on: SF-539
HOP-62 = tested on: HOP-62
SR = tested on: SR

## O=C(/C=C/C(Cl)(Cl)Cl)Nc1ccc(Cl)cc1
UACC-62
  GI50: 7.64 µM (inactive)
M14
  GI50: 4.62 µM (inactive)
OVCAR-8
  GI50: 14.9 µM (inactive)
SN12C
  GI50: 7.24 µM (inactive)
DU-145
  GI50: 16.9 µM (inactive)
MDA-N
  GI50: 3.44 µM (inactive)
UO-31
  GI50: 0.698 µM (active)
MDA-MB-231
  GI50: 2.49 µM (inactive)
U-251
  GI50: 11.6 µM (inactive)
SK-MEL-2
  GI50: 8.59 µM (inactive)
RPMI-8226
  GI50: 2.09 µM (inactive)
HT-29
  GI50: 1.94 µM (inactive)
LOX IMVI
  GI50: 0.8 µM (active)
SNB-75
  GI50: 3.69 µM (inactive)
MCF7
  GI50: 17.5 µM (inactive)
BT-549
  GI50: 17.2 µM (inactive)
EKVX
  GI50: 5.02 µM (inactive)
CCRF-CEM
  GI50: 1.56 µM (inactive)
MOLT-4
  GI50: 1.64 µM (inactive)
NCI/ADR-RES
  GI50: 2.45 µM (inactive)
A549
  GI50: 3.99 µM (inactive)
CAKI-1
  GI50: 0.8 µM (active)
HOP-92
  GI50: 2.12 µM (inactive)
PC-3
  GI50: 12.5 µM (inactive)
MDA-MB-435
  GI50: 3.74 µM (inactive)
SNB-19
  GI50: 17.7 µM (inactive)
NCI-H460
  GI50: 14.2 µM (inactive)
UACC-257
  GI50: 18.3 µM (inactive)
OVCAR-4
  GI50: 1.82 µM (inactive)
SK-MEL-28
  GI50: 18.3 µM (inactive)
T47D
  GI50: 2.15 µM (inactive)
ACHN
  GI50: 2.3 µM (inactive)
SK-MEL-5
  GI50: 11.1 µM (inactive)
SF-295
  GI50: 12.4 µM (inactive)
SF-268
  GI50: 3.23 µM (inactive)
TK-10
  GI50: 2.35 µM (inactive)
A498
  GI50: 13.9 µM (inactive)
OVCAR-3
  GI50: 6.89 µM (inactive)
RXF 393
  GI50: 3.01 µM (inactive)
NCI-H226
  GI50: 15.1 µM (inactive)
HCC 2998
  GI50: 6.44 µM (inactive)
COLO 205
  GI50: 2.19 µM (inactive)
NCI-H23
  GI50: 3.36 µM (inactive)
786-0
  GI50: 1.55 µM (inactive)
NCI-H522
  GI50: 0.514 µM (active)
KM12
  GI50: 2.05 µM (inactive)
SW-620
  GI50: 3.38 µM (inactive)
HL-60
  GI50: 1.48 µM (inactive)
IGROV-1
  GI50: 0.452 µM (active)
SK-OV-3
  GI50: 18.9 µM (inactive)
HCT-15
  GI50: 3.56 µM
HCT-116
  GI50: 4.73 µM (inactive)
K562
  GI50: 1.62 µM (inactive)
Malme-3M
  GI50: 5.37 µM (inactive)
Hs-578T
  GI50: 25.4 µM (inactive)
OVCAR-5
  GI50: 13.5 µM (inactive)
SF-539
  GI50: 1.99 µM (inactive)
HOP-62
  GI50: 4.94 µM (inactive)

## c1ccc(N/N=N/c2ccc(-c3nc4ccccc4[nH]3)cc2)nc1
M14
  GI50: 37.4 µM (inactive)
OVCAR-8
  GI50: 21.7 µM (inactive)
SN12C
  GI50: 15.3 µM (inactive)
DU-145
  GI50: 13.2 µM (inactive)
MDA-N
  GI50: 16.7 µM (inactive)
UO-31
  GI50: 19.4 µM (inactive)
MDA-MB-231
  GI50: 12.6 µM (inactive)
SR
  GI50: 2.12 µM (inactive)
U-251
  GI50: 16.5 µM (inactive)
SK-MEL-2
  GI50: 27 µM (inactive)
RPMI-8226
  GI50: 2.05 µM (inactive)
HT-29
  GI50: 21 µM (inactive)
LOX IMVI
  GI50: 18.5 µM (inactive)
SNB-75
  GI50: 21.6 µM (inactive)
MCF7
  GI50: 11.3 µM (inactive)
BT-549
  GI50: 37.5 µM (inactive)
EKVX
  GI50: 17.3 µM (inactive)
CCRF-CEM
  GI50: 2.64 µM (inactive)
MOLT-4
  GI50: 4.43 µM (inactive)
NCI/ADR-RES
  GI50: 30.3 µM (inactive)
A549
  GI50: 19.2 µM (inactive)
CAKI-1
  GI50: 27.9 µM (inactive)
HOP-92
  GI50: 17.3 µM (inactive)
PC-3
  GI50: 18.1 µM (inactive)
MDA-MB-435
  GI50: 21.6 µM (inactive)
SNB-19
  GI50: 20.8 µM (inactive)
NCI-H460
  GI50: 15.2 µM (inactive)
UACC-257
  GI50: 23.2 µM (inactive)
OVCAR-4
  GI50: 17.8 µM (inactive)
SK-MEL-28
  GI50: 20.7 µM (inactive)
T47D
  GI50: 12.7 µM (inactive)
ACHN
  GI50: 16.6 µM (inactive)
SK-MEL-5
  GI50: 27.6 µM (inactive)
SF-295
  GI50: 19.2 µM (inactive)
TK-10
  GI50: 19.6 µM (inactive)
A498
  GI50: > 100 µM (inactive)
OVCAR-3
  GI50: 15 µM (inactive)
RXF 393
  GI50: 16.4 µM (inactive)
NCI-H226
  GI50: 26.3 µM (inactive)
COLO 205
  GI50: 27 µM (inactive)
NCI-H23
  GI50: 31.8 µM (inactive)
786-0
  GI50: 14.4 µM (inactive)
NCI-H522
  GI50: 16.8 µM (inactive)
KM12
  GI50: 13.6 µM (inactive)
SW-620
  GI50: 17.8 µM (inactive)
HL-60
  GI50: 50.8 µM (inactive)
IGROV-1
  GI50: 13.2 µM (inactive)
SK-OV-3
  GI50: 14.7 µM (inactive)
HCT-15
  GI50: 15.8 µM
HCT-116
  GI50: 7.11 µM (inactive)
K562
  GI50: 7.31 µM (inactive)
Malme-3M
  GI50: 15.6 µM (inactive)
Hs-578T
  GI50: 19.8 µM (inactive)
OVCAR-5
  GI50: 26.3 µM (inactive)
SF-539
  GI50: 17.1 µM (inactive)
HOP-62
  GI50: 16.6 µM (inactive)
